# Where two headings read alike, the source gives them in different places.
# Key:
# [1] = molecular target: T1, full-length beta-Catenin (Uniprot ID P35222) (Homo sapiens, UniProt P35222); experiment: Fluorescence polarization IC50 (beta-catenin / 5FAM-TCF4 10-53 competition); assay type: binding; settings: read-out: beta-Catenin FP IC50
# T1 construct: 10 nM full-length beta-Catenin (Uniprot ID P35222)
# T1 sequence (P35222 1-781): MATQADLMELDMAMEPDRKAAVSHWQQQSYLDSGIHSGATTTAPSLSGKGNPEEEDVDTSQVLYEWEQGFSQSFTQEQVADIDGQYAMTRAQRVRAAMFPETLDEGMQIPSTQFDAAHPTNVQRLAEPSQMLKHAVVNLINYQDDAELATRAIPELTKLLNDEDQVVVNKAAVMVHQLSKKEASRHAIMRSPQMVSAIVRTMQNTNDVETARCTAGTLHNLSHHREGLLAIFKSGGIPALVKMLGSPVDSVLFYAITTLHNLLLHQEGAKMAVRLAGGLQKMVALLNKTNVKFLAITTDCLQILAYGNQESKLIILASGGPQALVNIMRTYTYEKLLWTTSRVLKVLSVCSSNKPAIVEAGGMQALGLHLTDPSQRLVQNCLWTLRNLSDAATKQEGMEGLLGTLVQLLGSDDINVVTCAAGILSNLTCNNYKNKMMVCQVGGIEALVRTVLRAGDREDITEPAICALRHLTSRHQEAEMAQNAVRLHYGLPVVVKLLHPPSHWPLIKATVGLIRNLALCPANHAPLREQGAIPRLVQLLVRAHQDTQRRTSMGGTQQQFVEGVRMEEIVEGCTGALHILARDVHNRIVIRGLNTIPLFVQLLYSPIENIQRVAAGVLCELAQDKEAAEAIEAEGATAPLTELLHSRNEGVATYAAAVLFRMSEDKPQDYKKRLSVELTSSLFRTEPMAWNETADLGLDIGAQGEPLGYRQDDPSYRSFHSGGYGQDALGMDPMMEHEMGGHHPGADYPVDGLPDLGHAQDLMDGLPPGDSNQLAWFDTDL
# [2] = molecular target: T2, beta-catenin/TCF4 engagement (Homo sapiens, UniProt P35222); experiment: Nano-BRET target engagement assay (B-cat-Halo & TCF4-Luc in HEK293 cells); assay type: cell-based; settings: read-out: NanoBRET Abs IC50
# T2 construct: expressed in transfected cells; host or cells: HEK293
# T2 sequence (P35222 1-781): T1 sequence (P35222 1-781)
Compound,IC50 ([1]; fluorescence polarization) [nM],IC50 ([2]; absolute IC50) [nM],IC50 [2] [nM],IC50 [1] [nM]
"CC(=O)N1CCC[C@]12CC=CCCCC1(CCCC=CCCCOC(=O)N3CC[C@@](C(=O)N[C@@H](Cc4ccsc4)C(=O)N[C@@H](Cc4csc5ccccc45)C(=O)N[C@H](CO)[C@@H](C)O)(C3)NC(=O)[C@H](Cc3ccccc3)NC(=O)[C@H](Cc3ccccc3)NC(=O)[C@H](C)NC(=O)[C@H](C)NC(=O)[C@H](Cc3ccccc3C(=O)O)NC(=O)[C@H](CC(=O)O)NC1=O)NC(=O)[C@H](CC(C)(C)C)NC(=O)[C@H](CC(=O)O)NC2=O (single isomer, unassigned) [I-1669, Ac-PL3-Asp-Npg-B5-Asp-2COOHF-Ala-Ala-Phe-Phe-PyrS2-3Thi-BztA-Thro1]",30,11800,–,–
"CC(=O)N1CCC[C@]12CC=CCCCC1(CCCC=CCCCOC(=O)N3CC[C@@](C(=O)N[C@@H](Cc4ccsc4)C(=O)N[C@@H](Cc4csc5ccccc45)C(=O)N[C@H](CO)[C@@H](C)O)(C3)NC(=O)[C@H](CC(C)C)NC(=O)[C@H](Cc3ccccc3)NC(=O)[C@H](C)NC(=O)[C@H](C)NC(=O)[C@H](Cc3ccccc3C(=O)O)NC(=O)[C@H](CC(=O)O)NC1=O)NC(=O)[C@H](CC(C)(C)C)NC(=O)[C@H](CC(=O)O)NC2=O (single isomer, unassigned) [I-1670, Ac-PL3-Asp-Npg-B5-Asp-2COOHF-Ala-Ala-Phe-Leu-PyrS2-3Thi-BztA-Thro1]",11,7900,–,–
"CC(=O)N1CCC[C@]12CC=CCCCC1(CCCC=CCCCOC(=O)N3CC[C@@](C(=O)N[C@@H](Cc4ccsc4)C(=O)N[C@@H](Cc4csc5ccccc45)C(=O)N[C@@H](CCC(N)=O)C(N)=O)(C3)NC(=O)[C@H](CC(C)C)NC(=O)C(Cc3cccc(C(=O)Oc4ccccc4)c3)NC(=O)[C@H](C)NC(=O)[C@H](C)NC(=O)[C@H](CN(CC(=O)O)CC(F)(F)F)NC(=O)[C@H](CC(=O)O)NC1=O)NC(=O)[C@H](CC(C)(C)C)NC(=O)[C@H](CC(=O)O)NC2=O (single isomer, unassigned) [I-2151, Ac-PL3-Asp-Npg-B5-Asp-TfeGA-Ala-Ala-3CO2PhF-Leu-PyrS2-3Thi-BztA-Gln-NH2]",58,–,14600,–
"CC(=O)N1CCC[C@]12CC=CCC1(CC=CCCCCCOC(=O)N3CC[C@](C(=O)N[C@@H](Cc4ccsc4)C(=O)N[C@@H](Cc4csc5ccccc45)C(=O)N[C@@H](CCC(N)=O)C(N)=O)(C3)NC(=O)[C@H](CC(C)C)NC(=O)[C@H](Cc3ccccc3)NC(=O)[C@H](C)NC(=O)[C@H](C)NC(=O)[C@H](CC(=O)O)NC(=O)[C@H](CC(=O)O)NC1=O)NC(=O)[C@H](CC(C)(C)C)NC(=O)[C@H](CC(=O)O)NC2=O (single isomer, unassigned) [I-2158, Ac-PL3-Asp-Npg-B3-Asp-Asp-Ala-Ala-Phe-Leu-PyrS4-3Thi-BztA-Gln-NH2]",213,–,> 20000,–
"CC(=O)N1CCC[C@]12CC=CCC1(CC=CCCCCCOC(=O)N3CC[C@](C(=O)N[C@@H](Cc4ccsc4)C(=O)N[C@@H](Cc4csc5ccccc45)C(=O)N[C@@H](CCC(N)=O)C(N)=O)(C3)NC(=O)[C@H](CC(C)C)NC(=O)[C@H](Cc3ccccc3)NC(=O)[C@H](C)NC(=O)[C@H](C)NC(=O)[C@H](CC(=O)O)NC(=O)[C@H](CC(=O)O)NC1=O)NC(=O)[C@H](CC(C)(C)C)NC(=O)[C@H](CC(=O)O)NC2=O (single isomer, unassigned) [I-2159, Ac-PL3-Asp-Npg-B3-Asp-Asp-Ala-Ala-Phe-Leu-PyrS4-3Thi-BztA-Gln-NH2]",116,–,> 20000,–
"CC(=O)N1CCC[C@]12CC=CCCCC1(CCCC=CCCCOC(=O)N3CC[C@@](C(=O)N[C@@H](Cc4ccccc4Cl)C(=O)N[C@@H](Cc4csc5ccccc45)C(=O)N[C@H](CO)Cc4ccccc4)(C3)NC(=O)[C@H](CC(N)=O)NC(=O)[C@H](Cc3ccccc3)NC(=O)[C@H](C)NC(=O)[C@H](C)NC(=O)[C@H](CC(=O)O)NC(=O)[C@H](CC(=O)O)NC1=O)NC(=O)[C@H](CC(C)(C)C)NC(=O)[C@H](CC(=O)O)NC2=O (stereo partly drawn) [I-1083, Ac-PL3-Asp-Npg-B5-Asp-Asp-Ala-Ala-Phe-Asn-PyrS2-2C1F-BztA-Pheo1]",–,18800,–,8
"CC(=O)N1CCC[C@]12CC=CCCCC1(CCCC=CCCCOC(=O)N3CC[C@@](C(=O)N[C@@H](Cc4ccsc4)C(=O)N[C@@H](Cc4csc5ccccc45)C(=O)N[C@@H](CO)C(N)=O)(C3)NC(=O)[C@H](CC(C)C)NC(=O)[C@H](Cc3ccccc3)NC(=O)[C@H](C)NC(=O)[C@H](C)NC(=O)[C@H]([C@@H](C)O)NC(=O)[C@H](CC(=O)O)NC1=O)NC(=O)[C@H](CC(C)(C)C)NC(=O)[C@H](CC(=O)O)NC2=O (stereo partly drawn) [I-1171, Ac-PL3-Asp-Npg-B5-Asp-Thr-Ala-Ala-Phe-Leu-PyrS2-3Thi-BztA-Ser-NH2]",70,28800,–,–

# Other lines, results leading:
IC50 ([1]; fluorescence polarization) [nM],IC50 ([2]; absolute IC50) [nM],IC50 [2] [nM],IC50 [1] [nM],Compound
15,6500,–,–,"CC(=O)N1CCC[C@]12CC=CCCCC1(CCCC=CCCCOC(=O)N3CC[C@@](C(=O)N[C@@H](Cc4ccsc4)C(=O)N[C@@H](Cc4csc5ccccc45)C(=O)N[C@@H](CO)C(N)=O)(C3)NC(=O)[C@H](CC(C)C)NC(=O)[C@H](Cc3ccccc3)NC(=O)[C@H](C)NC(=O)[C@H](C)NC(=O)[C@H](Cc3ccccc3C(=O)O)NC(=O)[C@H](CC(=O)O)NC1=O)NC(=O)[C@H](CC(C)(C)C)NC(=O)[C@H](CC(=O)O)NC2=O (single isomer, unassigned) [I-1666, Ac-PL3-Asp-Npg-B5-Asp-2COOHF-Ala-Ala-Phe-Leu-PyrS2-3Thi-BztA-Ser-NH2]"
29,16400,–,–,"CC(=O)N1CCC[C@]12CC=CCCCC1(CCCC=CCCCOC(=O)N3CC[C@@](C(=O)N[C@@H](Cc4ccsc4)C(=O)N[C@@H](Cc4csc5ccccc45)C(=O)N[C@H](CO)[C@@H](C)O)(C3)NC(=O)[C@H](Cc3ccccc3)NC(=O)[C@H](Cc3ccccc3)NC(=O)[C@H](C)NC(=O)[C@H](C)NC(=O)[C@H](Cc3ccccc3C(=O)O)NC(=O)[C@H](CC(=O)O)NC1=O)NC(=O)[C@H](CC(C)(C)C)NC(=O)[C@H](CC(=O)O)NC2=O (single isomer, unassigned) [I-1668, Ac-PL3-Asp-Npg-B5-Asp-2COOHF-Ala-Ala-Phe-Phe-PyrS2-3Thi-BztA-Thro1]"
8,12000,–,–,"CC(=O)N1CCC[C@]12CC=CCCCC1(CCCC=CCCCOC(=O)N3CC[C@@](C(=O)N[C@@H](Cc4ccccc4Cl)C(=O)N[C@@H](Cc4csc5ccccc45)C(=O)N[C@@H](CCO)C(N)=O)(C3)NC(=O)[C@H](CO)NC(=O)[C@H](Cc3ccccc3)NC(=O)[C@H](C)NC(=O)[C@H](C)NC(=O)[C@H](CC(=O)O)NC(=O)[C@H](CC(=O)O)NC1=O)NC(=O)[C@H](CC1CCCCC1)NC(=O)[C@H](CC(=O)O)NC2=O (stereo partly drawn) [I-1137, Ac-PL3-Asp-Cha-B5-Asp-Asp-Ala-Ala-Phe-Ser-PyrS2-2C1F-BztA-Hse-NH2]"
18,19800,–,–,"CC(=O)N1CCC[C@]12CC=CCCCC1(CCCC=CCCCOC(=O)N3CC[C@@](C(=O)N[C@@H](Cc4ccccc4Cl)C(=O)N[C@@H](Cc4csc5ccccc45)C(=O)N[C@@H](CC(C)C)C(N)=O)(C3)NC(=O)[C@H](CO)NC(=O)[C@H](Cc3ccccc3)NC(=O)[C@H](C)NC(=O)[C@H](C)NC(=O)[C@H](CC(=O)O)NC(=O)[C@H](CC(=O)O)NC1=O)NC(=O)[C@H](CC1CCCCC1)NC(=O)[C@H](CC(=O)O)NC2=O (stereo partly drawn) [I-1138, Ac-PL3-Asp-Cha-B5-Asp-Asp-Ala-Ala-Phe-Ser-PyrS2-2C1F-BztA-Leu-NH2]"
22,18000,–,–,"CC(=O)N1CCC[C@]12CC=CCCCC1(CCCC=CCCCOC(=O)N3CC[C@@](C(=O)N[C@@H](Cc4ccccc4Cl)C(=O)N[C@@H](Cc4csc5ccccc45)C(=O)N[C@H](C(N)=O)[C@@H](C)O)(C3)NC(=O)[C@H](CC(C)C)NC(=O)[C@H](Cc3ccccc3)NC(=O)[C@H](C)NC(=O)[C@H](C)NC(=O)[C@H](CC(=O)O)NC(=O)[C@H](CC(=O)O)NC1=O)NC(=O)[C@H](CC1CCCCC1)NC(=O)[C@H](CC(=O)O)NC2=O (stereo partly drawn) [I-1139, Ac-PL3-Asp-Cha-B5-Asp-Asp-Ala-Ala-Phe-Leu-PyrS2-2C1F-BztA-Thr-NH2]"
12,> 20000,–,–,"CC(=O)N1CCC[C@]12CC=CCCCC1(CCCC=CCCCOC(=O)N3CC[C@@](C(=O)N[C@@H](Cc4ccccc4Cl)C(=O)N[C@@H](Cc4csc5ccccc45)C(=O)N[C@@H](CCC(N)=O)C(N)=O)(C3)NC(=O)[C@H](CO)NC(=O)[C@H](Cc3ccccc3)NC(=O)[C@H](C)NC(=O)[C@H](CC(C)C)NC(=O)[C@H](CC(=O)O)NC(=O)[C@H](CC(=O)O)NC1=O)NC(=O)[C@H](Cc1ccccc1)NC(=O)[C@H](CC(=O)O)NC2=O (stereo partly drawn) [I-1153, Ac-PL3-Asp-Phe-B5-Asp-Asp-Leu-Ala-Phe-Ser-PyrS2-2C1F-BztA-Gln-NH2]"
